Laboratory results taken from patent US20190275169A1, “TARGETED IMMUNOSUPPRESSION FOR OPTOGENETIC INTERVENTION” (Circuit Therapeutics, Inc., priority 2018, published 2019).

Test system: light responsive excitatory opsin protein ChR2 delivered virally via AAV and expressed in the sensory nerve of a mouse
Test: Light-responsiveness over time after AAV delivery of ChR2 to the sensory nerve, immunosuppressant paradigms versus saline (FIG. 2A-2I)
Assay type: in vivo
Settings: drug paradigm and schedule as in FIG. 1; light approx. 450 nm
Description: Referring to FIG. 1, various drug groupings are listed (2) which have been known to modulate the immune system, including cyclosporine (“Cyc”), cyclosporine+mycophenolate mofetil (“MMF”), dexamethasone, rapamycin in various dosage configurations, rapamycin+dexamethasone+FK506 (also known as “tacrolimus”; an immunosuppressive drug used mainly after organ transplant to lower rejection risk), and metformin (a medication utilized in treating diabetes and polycystic ovary syndrome which also has been inculcated in immune suppression). Each of these listed drugs has previously been approved by the U.S. F.D.A. for different indications, and the depicted drug schedules associated with each grouping feature dosing and scheduling information that previously has been published in different treatment paradigms, such as for cardiovascular or transplant rejection scenarios.
Thus, referring again to the table (2) of FIG. 1, for cyclosporine, a subcutaneous (or “subQ” or “SQ”) regime is listed, wherein cyclosporine is injected subcutaneously for one week prior to injection of genetic material, and then every two days after, as is a cyclosporine+MMF combination (noted as “Cyc+MMF”) which has been used with success, for example, in clinical trials with adeno associated virus (“AAV”) gene therapies; the term “I.P.” or “i.p.” refers to intraperitoneal injection. […]

For `CN(C)C(=N)N=C(N)N` [metformin], the “effect on proportion of animals still exhibiting light-responsiveness versus saline” value was “does not seem to have a significant impact”.
